# Test results: patent publication US20240156767A1, “SCREENING METHOD FOR GLP-1 SECRETION REGULATION AGENT, GLP-1 SECRETION REGULATION AGENT, COMPOSITION FOR PREVENTING OR AMELIORATING DIABETES, OBESITY, POSTPRANDIAL HYPERGLYCEMIA, NEURODEGENERATIVE DISEASE, HYPOGLYCEMIA, ADIPOSITY, OR NESIDIOBLASTOSIS, METHOD FOR PROMOTING SECRETION OF GLP-1 IN …” (The Nisshin OilliO Group, Ltd., priority 2021, published 2024)
# Legend:
# Type in all cases: in vivo
# GPR84 knockout mice = assay: Same test as Test 2 (glucose tolerance, plasma insulin) using GPR84 knockout mice, data not shown; conditions: effect lower than with wild-type mice
# Source text: However, the increasing effect was lower than with wild-type mice. […] It was inferred that the total insulin secretion was reduced compared with that of wild-type mice.
# C57BL/6 male mice = assay: Glucose tolerance test in mice: plasma insulin concentration (ELISA); conditions: 1000 mg/kg oral; for Plasma insulin concentration: glucose 2.5 g/kg 60 minutes after sample, blood 30 minutes after glucose, mean±standard error; for Effect on plasma insulin concentration (in words): wild-type mice, glucose tolerance test
# Description: A glucose tolerance test was carried out by the following method to examine the effect by administration of various medium chain fatty acids (capric acid or lauric acid, both are a free body) to mice on plasma insulin secretion at that time. Note here that the above-mentioned medium chain fatty acid corresponds to a GPR84 agonist. Ten tablets of PBS (trade name “Phosphate Buffered Salts Tablets”, manufactured by Takara Bio Inc.) were dissolved in distilled water, and the total volume was adjusted to 1000 ml. To 10 ml of the prepared solution, 50 mg of carboxymethyl cellulose (trade name “Carboxymethyl cellulose sodium”, manufactured by FUJIFILM Wako Pure Chemical Industries, Ltd.) was added and mixed to obtain a carrier solution. To the obtained carrier solution, 2 g of capric acid (trade name “Decanoic acid”, manufactured by FUJIFILM Wako Pure Chemical Industries, Ltd.) was added, and mixed while heating to obtain a capric acid sample. A carrier solution was obtained in the same manner as in the (1-2) above. To the obtained carrier solution, 2 g of lauric acid (trade name “Dodecanoic acid”, manufactured by Sigma-Aldrich) was added and mixed while heating to obtain a lauric acid sample. Ten tablets of PBS (trade name “Phosphate Buffered Salts Tablets”, manufactured by Takara Bio Inc.) were dissolved in distilled water, and the total amount was adjusted to 1000 ml. To 10 ml of the prepared solution, 2.5 g of glucose (trade name “D(+)-glucose”, manufactured by FUJIFILM Wako Pure Chemical Industries, Ltd.) was added to obtain a glucose liquid. Based on the following method, any one of a control sample, a capric acid sample, and a lauric acid sample was administered to mice in each group, and then a glucose solution was further administered to carry out a glucose tolerance test. C57BL/6 male mice at 7- to 9-weeks old were purchased from Japan SLC, Inc. Each mouse (15 mice in total) was acclimatized for 1 week and then divided into three groups (a control sample administration group, a capric acid sample administration group, and a lauric acid sample administration group) so that the average body weight was uniform. […] Plasma was prepared from the obtained blood by a conventional method, and the plasma insulin concentration (pg/ml) was measured. The plasma insulin concentration was measured by ELISA using a commercially available kit (trade name “Revis (trademark) Insulin-Mouse (RTU)”, manufactured by Fujifilm Wako Shibayagi Co., Ltd.). In the data of FIG. 2 and Table 2, the measured value of the plasma insulin concentration was expressed as “mean±standard error”. Dunnet's test was used to test significant differences between trials, and significant differences were determined to exist when the risk rate was less than 5% (*p<0.05).
# wild-type mice = assay: Administration test: plasma GLP-1 concentration in wild-type mice (ELISA); conditions: WT mice, 1000 mg/kg oral; for Relative GLP-1 (plasma GLP-1 concentration relative to before administration = 1): 120 minutes after administration, mean±standard error
# Description: An administration test was carried out by the following method to examine an effect of administration of various medium chain fatty acids (capric acid or lauric acid, both are a free form) to mice on plasma GLP-1 secretion. The above medium chain fatty acids correspond to GPR84 agonists. A control sample (carboxymethylcellulose), a capric acid sample, and a lauric acid sample were prepared in the same manner as in the <Test 2> above. Based on the following method, any one of a control sample, a capric acid sample, and a lauric acid sample was administered to mice in each group. In this test, two types of mice, that is, wild-type mice and GPR84 knockout mice, were prepared. As wild-type mice, 18 C57BL/6 male mice at 7- to 9-weeks old (purchased from Japan SLC, Inc.) were used. As the GPR84 knockout mice, 12 mice were prepared using C57BL/6 according to the method by Wang et al. (Pharmacological Research Volume 164, February 2021, 105406). Furthermore, the age in weeks of the GPR84 knockout mice was the same as that of the wild-type mice. Each mouse was acclimatized for one week, and then divided into six groups (a control sample-administered group, a capric acid sample-administered group, and a lauric acid sample administration group for each of the wild-type mice and the GPR84 knockout mice) so that average value of the body weight is uniform in each group. Note here that the mice were reared in plastic cages under an environment of temperature of 24±1° C., humidity of 50±10%, and a 12-hour light-dark cycle (lighting from 8:00 to 20:00). Water and solid feed (trade name “CLEA Rodent Diet CE-2 for mice, rats and hamsters”, manufactured by CLEA Japan Co., Ltd.) were fed ad libitum. However, the day before the glucose tolerance test, fasting was started from 17:00, and on the day of the test, the administration was started from 10:00. Each sample (any one of a control sample, a capric acid sample, and a lauric acid sample) was administered to each group of mice after blood was collected from the tail vein. […] Plasma was prepared by a conventional method from the blood obtained before and after sample administration, and the plasma GLP-1 concentration (pM) was measured. The plasma GLP-1 concentration was measured by ELISA using a commercially available kit (trade name “Glucagon Like Peptide-1 (Active) ELIS”, manufactured by Sigma-Aldrich). The data in FIG. 3 and Table 3 are expressed as relative values (Relative GLP-1) when the average value of plasma GLP-1 concentration before administration of each sample is set to “1”, and expressed as “mean±standard error of the relative values”. Dunnet's test was used to test significant differences between trials, and significant differences were determined to exist when the risk rate was less than 5% (*p<0.05). […]
Structure (SMILES),Effect on plasma insulin concentration (in words) (GPR84 knockout mice),Plasma insulin concentration (C57BL/6 male mice),Effect on plasma insulin concentration (in words) (C57BL/6 male mice),Effect on plasma GLP-1 concentration (in words) (wild-type mice),Relative GLP-1 (plasma GLP-1 concentration relative to before administration = 1) (wild-type mice)
"CCCCCCCCCC(=O)O [Capric acid, capric acid (n-decanoic acid)]",increased the plasma insulin concentration,395.1 ± 26.1 * pg/ml,significantly increased plasma insulin concentrations,significantly increased the plasma GLP-1 concentration,1.65 ± 0.29 *
"CCCCCCCCCCCC(=O)O [Lauric acid, lauric acid]",increased the plasma insulin concentration,702.8 ± 84.4 * pg/ml,significantly increased plasma insulin concentrations,significantly increased the plasma GLP-1 concentration,3.02 ± 0.67 *
